Values joined by “and” are separate entries in the source; they are usually repeats but may differ in a detail not shown here. Equal entries are not always repeated.
How the values were obtained:
[1] = system: testosterone-enhanced ventral prostate and seminal vesicle weights in castrated male Sprague Dawley rats; test: Ventral Prostate and Seminal Vesicle Weight In Vivo Assay; set-up: species or system rat; details: immature castrated rats; once daily for five days, usually orally at 40 mg/kg, with testosterone propionate 2 mg/kg s.c.
How it was run: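 Immature (~50 g) castrated Sprague Dawley rats dosed once daily for five days with compound (usually oral, 40 mg/kg, cyclodextrin or methylcellulose vehicle) plus testosterone propionate 2 mg/kg s.c. Wet ventral prostate and seminal vesicle weights taken on day six; activity judged by prostate weight or body-weight-adjusted % inhibition.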

[2] = molecular target: T1, androgen receptor (adenovirus AdEasy+rAR in COS-7 cells) (Rattus norvegicus, UniProt P15207); test: COS-7 Whole-Cell Androgen Receptor Binding Assay, Adenovirus Transduction; details: for % Inhibition / inhibition at 3 µM: COS binding, 3000 nM unless otherwise noted
T1 construct: expressed in transfected cells
T1 sequence (P15207 1-902): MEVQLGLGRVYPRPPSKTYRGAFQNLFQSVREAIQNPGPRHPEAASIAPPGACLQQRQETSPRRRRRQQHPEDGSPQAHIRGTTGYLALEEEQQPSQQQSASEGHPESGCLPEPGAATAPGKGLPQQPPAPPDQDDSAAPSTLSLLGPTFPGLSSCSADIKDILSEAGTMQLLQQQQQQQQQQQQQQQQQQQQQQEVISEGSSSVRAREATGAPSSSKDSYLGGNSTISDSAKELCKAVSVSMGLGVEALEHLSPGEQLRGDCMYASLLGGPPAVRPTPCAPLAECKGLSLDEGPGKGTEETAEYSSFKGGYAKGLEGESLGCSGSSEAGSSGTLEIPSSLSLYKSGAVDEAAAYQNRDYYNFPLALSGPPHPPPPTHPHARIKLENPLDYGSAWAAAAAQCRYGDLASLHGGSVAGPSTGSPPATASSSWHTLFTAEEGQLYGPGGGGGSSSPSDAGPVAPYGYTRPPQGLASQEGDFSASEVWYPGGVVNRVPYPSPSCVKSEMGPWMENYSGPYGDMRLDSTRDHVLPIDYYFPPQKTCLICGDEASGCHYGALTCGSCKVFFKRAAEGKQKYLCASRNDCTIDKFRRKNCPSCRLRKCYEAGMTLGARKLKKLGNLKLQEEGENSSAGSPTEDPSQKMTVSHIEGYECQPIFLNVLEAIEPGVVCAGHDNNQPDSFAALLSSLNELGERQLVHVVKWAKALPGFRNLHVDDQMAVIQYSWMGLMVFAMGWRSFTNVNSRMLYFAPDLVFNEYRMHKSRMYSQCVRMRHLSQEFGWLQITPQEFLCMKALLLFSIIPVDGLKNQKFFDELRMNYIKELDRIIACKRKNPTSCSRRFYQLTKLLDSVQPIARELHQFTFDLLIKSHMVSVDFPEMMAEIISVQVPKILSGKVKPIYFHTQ
Procedure: COS-7 cells were plated in 96-well plates at 20,000 cells per well, in a solution of DMEM/F12 (GIBCO) containing 10% (v/v) charcoal-treated fetal bovine serum (Hyclone) and lacking phenol red. The cells were then incubated overnight at 37° C. in 5% (v/v) humidified CO2.
Test compound solutions were prepared by diluting the test compound in 100% (v/v) DMSO, if necessary.
Next, 1 mL of DMEM/F12 lacking phenol red was pipetted into each of the wells of a 2-mL 96-well assay block. […] The wells were carefully mixed by pipette.
In a 15 mL or 50 mL sterile centrifuge tube, a dilution in DMEM/F12 of the adenovirus AdEasy+rAR at a moi of 1:50 per well was prepared.
The medium was removed from the 96-well plates by inversion and the plates dried very briefly, inverted, on a sterile towel. As soon as possible after medium removal, 40 μL of the diluted test compound was added to each well, in duplicate. […] The plates were then incubated for 48 hours at 37° C. in 5% (v/v) humidified CO2.
The medium was removed from the above incubated plates by inversion and dried. Each well was then washed with 0.35 mL of 1×PBS. The PBS was then removed from the plates by inversion and the plates dried.
To each well was then added 50 μL of 0.5% (v/v) Triton X-100 (Sigma) in 1×PBS and the plates placed on a rotary shaker for 5 min. The contents of each well were then transferred to an OptiPlate-96 (Packard) scintillation plate. To each well was then added 0.2 mL of Microscint-20 (Packard) and the wells counted on a TopCount (Packard).
[…] Counts per well were measured and percents of inhibition determined. […] Counts per well were measured and IC50s determined by linear regression.

[3] = molecular target: T2, androgen receptor (adenovirus AdEasy+rAR in L929 cells) (Rattus norvegicus, UniProt P15207); test: L929 Androgen Receptor Functional Assay, Adenovirus Transduction; format: cell-based; details: for % Activity: L929 agonist testing
T2 construct: expressed in transfected cells
T2 sequence (P15207 1-902): T1 sequence (P15207 1-902)
Procedure: L929 cells were plated in 96-well plates at 20,000 cells per well, in DMEM/F12 (GIBCO) containing 10% (v/v) charcoal-treated fetal bovine serum (Hyclone) and lacking phenol red. The plates were then incubated overnight at 37° C. in 5% (v/v) humidified CO2.
Test compound dilutions were prepared in 100% (v/v) DMSO, if necessary. Each dilution was made to 1250× the final desired assay concentration.
First, 2 mL of DMEM/F12 lacking phenol red was pipetted into the wells of a 2-mL 96-well assay block. Next, 4 μL of the 1250× test compound dilutions were pipetted into each well of the assay block. The mixtures within the well were then carefully mixed by pipette.
In a 15 mL or 50 mL sterile centrifuge tube, a 2.5 nM (2.5×) dilution of R1881 (methyl-trienolone) in DMEM/F12 lacking phenol red was prepared.
In a second 15 mL or 50 mL centrifuge tube a solution containing an equal volume of DMEM to the first and an equal volume of 100% (v/v) DMSO to the volume of R1881 used in the first tube was prepared.
In a 15 mL or 50 mL sterile centrifuge tube, a dilution in DMEM/F12 of the adenovirus AdEasy+rAR at an moi of 1:500 per well was prepared.
The medium was removed from the 96-well plates by inversion and dried, inverted, very briefly. As soon as possible after medium removal, 40 μL of the diluted unlabeled test compound was added to each well, in duplicate. To each well designated for antagonist testing was added 40 μL of the 2.5 nM R1881 dilution to the wells for antagonist testing. To each well designated for agonist testing was added 40 μL of the DMSO dilution. Then 20 μL of the diluted adenovirus were added to all wells. The plates were incubated for 48 hours at 37° C. in 5% (v/v) humidified CO2.
To each well was added 100 μL of Steady-Glo luciferase assay substrate (Promega) and the plates were placed on a rotary shaker for 1 min. The plates were then incubated at room temperature in the dark for one hour. The contents of each well were then transferred to a white microtiter plate (Packard) and read on a Luminoskan Ascent (Thermo Lab Systems).
L929 AR percent activity was determined by testing dilutions of the test compound using a concentration of 3000 nM unless otherwise noted. L929 percent inhibition was determined by testing dilutions of the test compound using a concentration of 3000 nM. […] Luciferase activity per well were measured and EC50s and IC50s determined by linear regression.

Structure (SMILES)	active / inactive (inhibition of testosterone-enhanced prostate weight) [1]	% Inhibition [2]	% Activity ([3]; 3000 nM)	inhibition at 3 µM [2]	further results
CC(O)(CSCC(F)(F)F)c1cc2cc([N+](=O)[O-])c(C(F)(F)F)cc2[nH]1 (stereo not shown) [compound 201]	inactive	86%			% Activity ([3]; 3000 nM, 3 µM): 2%
C[S+]([O-])CCC(C)(O)c1cc2cc([N+](=O)[O-])c(C(F)(F)F)cc2[nH]1 (mixture of isomers) [compound 50]	inactive	7%	2%		
CC(O)(CCS(C)(=O)=O)c1cc2cc([N+](=O)[O-])c(C(F)(F)F)cc2[nH]1 (stereo not shown) [compound 49]	inactive		2%	30%	
CCS(=O)(=O)CC(C)(O)c1[nH]c2cc(C(F)(F)F)c(C#N)cc2c1C (single isomer, unassigned) [Compound #251, 2-(2-Ethanesulfonyl-1-hydroxy-1-methyl-ethyl)-3-methyl-6-trifluoromethyl-1H-indole-5-carbonitrile]	active	85%	−1%		inhibition at 3 µM ([3]; L929, L929 antagonist testing with R1881, 3000 nM): 90%
CC(O)(CSCC(F)(F)F)c1cc2cc([N+](=O)[O-])c(C(F)(F)F)cc2[nH]1 (single isomer, unassigned) [compound 202]	active	50%			% Activity ([3]; 3000 nM, 3 µM): 1%
CCSCC(C)(O)c1cc2cc([N+](=O)[O-])c(C(F)(F)F)cc2[nH]1 (single isomer, unassigned) [compound 150]		81% and 74%			% Activity ([3]; @ 8000 nM): 0 @ 8000 nM %
CC(O)(CSC1CCCC1)c1cc2cc([N+](=O)[O-])c(C(F)(F)F)cc2[nH]1 (stereo not shown) [compound 173]	inactive		2%	17%	
CC(O)(CS(=O)(=O)c1ccc(O)cc1)c1cc2cc(Cl)c(C(F)(F)F)cc2[nH]1 (stereo not shown) [compound 121]			−4%	72%	
CCSCC(C)(O)c1cc2cc(C#N)c(Cl)cc2[nH]1 (stereo not shown) [compound 225]			1%	82%	
CC(O)(CSc1ccc([N+](=O)[O-])cc1)c1cc2cc(Cl)c(C(F)(F)F)cc2[nH]1 (stereo not shown) [compound 122]			10%	66%	
CC(O)(CSc1ccc(C(=O)O)cc1)c1cc2cc(Cl)c(C(F)(F)F)cc2[nH]1 (stereo not shown) [compound 133]			−4%	65%	
CC(O)(CSc1ccc(C(=O)O)cc1)c1cc2cc(Cl)c(C(F)(F)F)cc2n1S(C)(=O)=O (stereo not shown) [compound 132]			−5%	8.7%	
CCSCC(C)(O)c1cc2cc([N+](=O)[O-])c(C(F)(F)F)cc2[nH]1 (single isomer, unassigned) [compound 149]		63% and 78%			% Activity ([3]; 3000 nM, 3 µM): 2%
COc1ccc(S(=O)(=O)CC(C)(O)c2cc3cc(Cl)c(C(F)(F)F)cc3n2S(C)(=O)=O)cc1 (stereo not shown) [compound 128]			−4%	21%	
CC(O)(CS(C)(=O)=O)c1cc2cc(Cl)c(C(F)(F)F)cc2n1S(C)(=O)=O (stereo not shown) [compound 137]			0%	73%	
CCSCC(C)(O)c1cc2cc(Cl)ccc2n1S(C)(=O)=O (racemic) [compound 154]		50%	2%		% Inhibition ([3]; L929 antagonist testing with R1881, 3000 nM): 7%
CSCC(C)(O)c1cc2cc([N+](=O)[O-])c(C(F)(F)F)cc2[nH]1 (single isomer, unassigned) [compound 145]		84.7%			% Activity ([3]; 3000 nM, 3 µM): 1%
CC(O)(CS(C)(=O)=O)c1cc2cc([N+](=O)[O-])c(C(F)(F)F)cc2[nH]1 (stereo not shown) [compound 148]		32%	0%		
O=[N+]([O-])c1cc2cc(C3(O)CCSCC3)[nH]c2cc1C(F)(F)F [compound 17]	inactive				IC50 [2]: > 1500 nM
CCS(=O)(=O)CC(C)(O)c1cc2cc([N+](=O)[O-])c(C(F)(F)F)cc2[nH]1 (stereo not shown) [compound 151]		55%			% Activity ([3]; @ 8000 nM): −1 @ 8000 nM %
CC(O)(CSc1ccc(O)cc1)c1cc2cc(Cl)c(C(F)(F)F)cc2[nH]1 (stereo not shown) [compound 120]			−5%	86%	
CC(O)(CS(C)(=O)=O)c1cc2cc([N+](=O)[O-])c(C(F)(F)F)cc2[nH]1 (stereo not shown) [compound 147]		6.1%	0%		
